Values after ≈ are worked out from the molar mass of the structure shown. Read-outs that look alike come from different tables or passages of the source.
What was measured:
Assay in all cases: In vitro antifungal activity (MIC), SGA agar plate, 27° C., 7 days
[1] = system: Trichophyton mentagrophytes TIMM 2789; type: cell-based; details: for MIC: Trichophyton mentagrophytes, TIMM2789, 168 h, T. mentagrophytes TIMM 2789, read-out: MIC value against Trichophyton
Method: (§1) In vitro antifungal activity of compounds against dormatophytes
Trichophyton mentagrophytes TIMM 2789
(§2) Preparation of inoculation fungal solution:
(§3) To a strain cultured on Sabouraud's glucose agar (SGA) slant medium at 27° C. for 1 to 2 weeks was added 0.1% (v/v) Tween 80-added sterilized physiological saline solution, followed by rubbing with a platinum spatula. The resulting suspension of conidia was filtered through a sterilized gauze to eliminate mycelium mass. Thereafter, the conidia was counted by an erythrocytometer (Thoma) The suspension of the conidia was diluted with 0.1% (v/v) Tween 80-added sterilized physiological saline solution so as to have a concentration of 1×10^6 conidia/ml to obtain an inoculation fungal solution.
(§4) Each compound was dissolved into dimethyl sulfoxide (DMSO) to prepare a diluent having a […]. The concentration of DMSO in a medium was adjusted to hair 1% (v/v).
(§5) Measurement of antifungal activity:
(§6) A SGA plate medium containing a given amount of a compound (20 ml/dish) was prepared. A loopful of the inoculation fungal solution was applied in the form of a line to each plate medium at a length of about 15 mm, and was allowed to stand for cultivation at 27° C. for 7 days. The minimum inhibitory concentration (MIC) of the compound at which a growth of a microorganism cannot be visually recognized was determined.

T. rubrum IFO 5805 = type: cell-based, Trichophyton rubrum; details: for MIC: Trichophyton rubrum, IFO5805, 168 h, read-out: MIC value against Trichophyton
[2] = system: Trichophyton rubrum IFO 6204; type: cell-based; details: for MIC: Trichophyton rubrum, IFO6204, 168 h, T. rubrum IFO 6204, read-out: MIC value against Trichophyton
Method: as §1
Trichophyton rubrunm IFO 6204
as §2, §3, §4, §5, §6

[3] = system: Trichophyton mentagrophytes IFO 5811; type: cell-based; details: for MIC: Trichophyton mentagrophytes, IFO5811, 168 h, T. mentagrophytes IFO 5811, read-out: MIC value against Trichophyton
Method: as §1
Trichophyton mentagrophytes IFO 5811
as §2, §3, §4, §5, §6

Compound | MIC [1] | MIC value against Trichophyton (T. rubrum IFO 5805) | MIC (T. rubrum IFO 5805) | MIC value against Trichophyton ([2]; T. rubrum IFO 6204) | MIC [2] | MIC [3] | MIC value against Trichophyton ([1]; T. mentagrophytes TIMM 2789) | MIC value against Trichophyton ([3]; T. mentagrophytes IFO 5811) | MIC value against Trichophyton ([3]; T. mentagrophytes IFO 5811, listed as 12') | MIC value against Trichophyton ([1]; T. mentagrophytes TIMM 2789, listed as 6') | MIC value against Trichophyton ([2]; T. rubrum IFO 6204, listed as 2') | MIC value against Trichophyton (T. rubrum IFO 5805; listed as 8') | MIC value against Trichophyton ([3]; T. mentagrophytes IFO 5811, listed as 8')
N#C/C(=C1/SC[C@@H](c2ccc(Br)cc2Br)S1)n1ccnc1 [compound 11] | 0.02 µg/mL (≈ 0.0451 µM) | 0.04 µg/mL (≈ 0.0903 µM) | 0.02 µg/mL (≈ 0.0451 µM) | 0.02 µg/mL (≈ 0.0451 µM) | 0.01 µg/mL (≈ 0.0226 µM) | 0.04 µg/mL (≈ 0.0903 µM) |  |  |  |  |  |  | 
N#C/C(=C1/SC[C@@H](c2ccccc2OC(F)F)S1)n1ccnc1 [compound 9] | 0.64 µg/mL (≈ 1.82 µM) | 0.64 µg/mL (≈ 1.82 µM) | 0.32 µg/mL (≈ 0.911 µM) | 0.64 µg/mL (≈ 1.82 µM) | 0.32 µg/mL (≈ 0.911 µM) | 1.28 µg/mL (≈ 3.64 µM) | 1.28 µg/mL (≈ 3.64 µM) | 2.56 µg/mL (≈ 7.29 µM) |  |  |  |  | 
N#C/C(=C1/SC[C@@H](c2ccc(F)cc2F)S1)n1ccnc1 [compound 7] | 0.04 µg/mL (≈ 0.124 µM) | 0.16 µg/mL (≈ 0.498 µM) | 0.08 µg/mL (≈ 0.249 µM) | 0.04 µg/mL (≈ 0.124 µM) | 0.02 µg/mL (≈ 0.0622 µM) | 0.16 µg/mL (≈ 0.498 µM) | 0.08 µg/mL (≈ 0.249 µM) | 0.32 µg/mL (≈ 0.996 µM) |  |  |  |  | 
N#C/C(=C1/SC[C@@H](c2ccc(Cl)cc2)S1)n1ccnc1 [compound 4] | > 0.08 µg/mL |  | > 0.08 µg/mL | > 0.08 µg/mL | 0.08 µg/mL (≈ 0.25 µM) | > 0.08 µg/mL |  |  |  |  |  |  | 
N#C/C(=C1/SC[C@@H](c2ccc(F)cc2Cl)S1)n1ccnc1 [compound 12] | 0.02 µg/mL (≈ 0.0592 µM) | 0.04 µg/mL (≈ 0.118 µM) | 0.02 µg/mL (≈ 0.0592 µM) | 0.04 µg/mL (≈ 0.118 µM) | 0.02 µg/mL (≈ 0.0592 µM) |  | 0.04 µg/mL (≈ 0.118 µM) | 0.04 µg/mL (≈ 0.118 µM) | 0.16 µg/mL (≈ 0.474 µM) |  |  |  | 
Cc1ccccc1[C@@H]1CS/C(=C(/C#N)n2ccnc2)S1 [compound 6] |  | 0.32 µg/mL (≈ 1.07 µM) | 0.16 µg/mL (≈ 0.534 µM) |  | 0.08 µg/mL (≈ 0.267 µM) | 0.32 µg/mL (≈ 1.07 µM) | 0.08 µg/mL (≈ 0.267 µM) |  |  | 0.32 µg/mL (≈ 1.07 µM) |  |  | 
N#C/C(=C1/SC[C@@H](c2cccc(Cl)c2)S1)n1ccnc1 [Compound No. 2] | 0.32 µg/mL (≈ 1 µM) | > 0.64 µg/mL | 0.64 µg/mL (≈ 2 µM) | 0.16 µg/mL (≈ 0.5 µM) |  | 0.64 µg/mL (≈ 2 µM) | > 0.64 µg/mL | > 0.64 µg/mL |  |  | 0.64 µg/mL (≈ 2 µM) |  | 
N#C/C(=C1/SC[C@@H](c2ccccc2C(F)(F)F)S1)n1ccnc1 [compound 10] | 0.16 µg/mL (≈ 0.453 µM) | 0.08 µg/mL (≈ 0.226 µM) | 0.04 µg/mL (≈ 0.113 µM) | 0.08 µg/mL (≈ 0.226 µM) | 0.04 µg/mL (≈ 0.113 µM) | 0.32 µg/mL (≈ 0.906 µM) | 0.32 µg/mL (≈ 0.906 µM) | 0.64 µg/mL (≈ 1.81 µM) |  |  |  |  | 
N#C/C(=C1/SC[C@@H](c2ccc(Br)cc2)S1)n1ccnc1 [compound 3] | > 0.08 µg/mL |  | > 0.08 µg/mL | > 0.08 µg/mL | 0.08 µg/mL (≈ 0.22 µM) | > 0.08 µg/mL |  |  |  |  |  |  | 
N#C/C(=C1/SC[C@@H](c2ccccc2Br)S1)n1ccnc1 [compound 8] | 0.02 µg/mL (≈ 0.0549 µM) | 0.01 µg/mL (≈ 0.0275 µM) |  | 0.02 µg/mL (≈ 0.0549 µM) | 0.01 µg/mL (≈ 0.0275 µM) |  | 0.04 µg/mL (≈ 0.11 µM) | 0.04 µg/mL (≈ 0.11 µM) |  |  |  | 0.04 µg/mL (≈ 0.11 µM) | 0.16 µg/mL (≈ 0.439 µM)
N#C/C(=C1/SC[C@@H](c2ccc(F)cc2)S1)n1ccnc1 [Compound No. 1, (R)-(E)-[4-(4-fluorophenyl)-1,3-dithicolan-2-ylidene]-1-imidazolylacetonitrile] | 0.32 µg/mL (≈ 1.05 µM) | 0.64 µg/mL (≈ 2.11 µM) | 0.32 µg/mL (≈ 1.05 µM) | 0.32 µg/mL (≈ 1.05 µM) | 0.16 µg/mL (≈ 0.527 µM) | 0.64 µg/mL (≈ 2.11 µM) | 0.64 µg/mL (≈ 2.11 µM) | > 0.64 µg/mL |  |  |  |  | 
N#C/C(=C1/SC[C@@H](c2ccc(Br)cc2Cl)S1)n1ccnc1 [compound 13, (R)-(E)-[4-(2-chloro-4-bromophenyl) -1,3-dithiolan-2-ylidene]-1-imidazolylacetonitrile] | 0.01 µg/mL (≈ 0.0251 µM) | 0.02 µg/mL (≈ 0.0502 µM) | 0.01 µg/mL (≈ 0.0251 µM) | 0.02 µg/mL (≈ 0.0502 µM) | 0.01 µg/mL (≈ 0.0251 µM) | 0.02 µg/mL (≈ 0.0502 µM) | 0.02 µg/mL (≈ 0.0502 µM) | 0.04 µg/mL (≈ 0.1 µM) |  |  |  |  | 
N#C/C(=C1/SC[C@@H](c2ccccc2F)S1)n1ccnc1 [compound 5] | 0.02 µg/mL (≈ 0.0659 µM) |  | 0.04 µg/mL (≈ 0.132 µM) |  | 0.01 µg/mL (≈ 0.033 µM) | 0.08 µg/mL (≈ 0.264 µM) | 0.04 µg/mL (≈ 0.132 µM) | 0.16 µg/mL (≈ 0.527 µM) |  |  |  |  | 
